Series [1] concerns HepG2 cell line. Briefly: In vitro toxicity study on HepG2 cell line (resazurin, viability and IC50). The class given is cell-based, human. To be noted: for IC50: lipid toxicity, HepG2, 48 h post-treatment, 6.25-800 μM, read-out: IC50 value, μM (on HepG2 cell). The procedure:
(§1) The synthesized lipids were tested in term of in vitro transfection efficacy and toxicity on HeLa cells. In order to perform the mentioned biological tests, appropriate LNPs had to be formulated from the synthesized lipids. The formulation technique was different in Method A and B. The particle size, polydispersity index (PDI) and zeta potential of resulting LNPs were determined by means of Dynamic Light Scattering technique (DLS). Prior to biological testing the encapsulation efficiency (EE) of the loaded LNPs was determined by using RiboGreen RNA assay. In case of Method A Luc mRNA while in case of Method B GFP mRNA was transfected into the cells. In parallel with the transfection experiments, toxicity of the investigated LNPs was determined, in case of Method A resazurin assay while in case of Method B MTT assay was used. Additionally, the toxicity of the lipids was investigated on HepG2 cells and IC50 values were determined.
HepG2 cell line (human hepatocellular carcinoma) were maintained in DMEM medium supplemented with 10% FBS. Cell toxicity measurements were carried out in 384-well microtiter plates with 1000 cells seeded in each well. Test measurements were carried out in triplicate, and control measurements in quadruplicate. After an overnight incubation, the cells were treated with an increasing concentration of the test compounds (6.25, 12.5, 25, 50, 100, 200, 400, 800 μM). […] 48 h post-treatment, following visual inspection under an inverted microscope, cell viability was measured by resazurin assay. Viability of treated cells was calculated relative to that of ethanol vehicle controls. Concentration response curves (CRCs) were obtained and corresponding IC50 values were calculated where applicable and are shown in Table 9.
Resazurin reagent (Sigma-Aldrich) was dissolved in PBS (pH 7.4) at 0.15 mg/ml concentration, 0.22 μm filtered and aliquoted at −20° C., 10 μl resazurin stock solution was added to wells. After 5 hours incubation at 37° C. under 5% CO2 fluorescence (530 nm excitation/580 nm emission) was recorded on a multimode microplate reader.

Series [2] has as its system HeLa cells. Briefly: Transfection efficiency with Luciferase (SecNLuc) mRNA, Nano-Glo assay (Method A). To be noted: Luc mRNA, 24 h, luminescence; for Transfection 10 ng mRNA: 10 ng mRNA/well; for Transfection 50 ng mRNA: 50 ng mRNA/well; for Transfection 100 ng mRNA: 100 ng mRNA/well. The class given is cell-based. The procedure:
as §1
• 1. Prepare mRNA solution by adding 100 ng mRNA (SecNLuc, #P009024, RiboPro) to 5 μl Opti-MEM • multiply by number of wells, include different concentrations and add 10% extra • a standard set-up we use is 100 ng-50 ng-10 ng mRNA/well in triplicate, which would need […] mRNA (includes 10% extra)
• 2. (If applicable) Prepare different concentrations in Opti-MEM (for instance 100/50/10 ng). • 3. Add 10 μl to each well and mix carefully by pipetting. • 4. Mix by swirling the plate horizontally at modest speed. Reverse in direction 3 times. • 5. Incubate for 24 hours (incubator).
This protocol is applied to measure luciferase activity for secreted NanoLuc and is based on the protocol by Promega (Nano-Glo® Luciferase Assay System #N1110-1150). The protocol is designed for a 384-wells plate, but volumes can be changed accordingly for other plates.
• 1. Plate cells (HeLa) in 96-well plate, grow until 80% confluent and transfect with SecNanoLuc mRNA and incubate for the desired period (24 h). • 2. After incubation, the translated protein is accumulated in the medium. Transfer medium to a new plate or tubes. • 3. Transfer 12 μl of each sample to a black-walled, clear-bottom 384-well plate • Black-walled plates are important to prevent shine-through of luminescence from other wells; alternatively, multiple wells between samples can be left empty. • 4. Set-up plate reader • 5. Prepare the desired amount of Nano-Glo® Luciferase Assay Reagent by combining one volume of Nano-Glo® Luciferase Assay Substrate with 50 volumes of Nano-Glo® Luciferase Assay Buffer: • a. composition: 100 mM MES pH 6; 1 mM EDTA; […]; 150 mM KCl; 1 mM DTT; 35 mM Thiourea; • b. briefly spin tubes containing substrate in a microcentrifuge before use. • 6. Add and mix (by pipetting) 12 μl Nano-Glo® Luciferase Assay Reagent per well • Wait approximately 3 minutes before measuring luminescence. […] Measure luminescence in plate reader using standard protocol luciferase (this includes mixing sample in plate reader)

The mark [3] stands for this setting: HepG2 cells, 6.25 μM lipid, 48 h post-treatment, resazurin, relative to ethanol vehicle controls.
The mark [4] stands for this setting: HepG2 cells, 12.5 μM lipid, 48 h post-treatment, resazurin, relative to ethanol vehicle controls.
[5] abbreviates: HepG2 cells, 25 μM lipid, 48 h post-treatment, resazurin, relative to ethanol vehicle controls.
Where [6] appears, read: HepG2 cells, 50 μM lipid, 48 h post-treatment, resazurin, relative to ethanol vehicle controls.
Where [7] appears, read: HepG2 cells, 100 μM lipid, 48 h post-treatment, resazurin, relative to ethanol vehicle controls.
[8] abbreviates: HepG2 cells, 200 μM lipid, 48 h post-treatment, resazurin, relative to ethanol vehicle controls.
[9] abbreviates: HepG2 cells, 400 μM lipid, 48 h post-treatment, resazurin, relative to ethanol vehicle controls.
[10] abbreviates: HepG2 cells, 800 μM lipid, 48 h post-treatment, resazurin, relative to ethanol vehicle controls.

Read-outs that look alike come from different tables or passages of the source. Bounds are passed on as bounds.

For `CCCCCCCCC(CCCCCC)C(=O)OCCCCCCN(CCCCO)CCCCCCOC(=O)C(CCCCCC)CCCCCCCC` (stereo not drawn) [ALC-0315, reference compound], the “Viability (%) at different lipid concentrations, mean” value was determined as 76.8% in series [1] (setting [3]); 97.4% in series [1] (setting [4]); 95.4% in series [1] (setting [5]); 91.6% in series [1] (setting [6]); 84.2% in series [1] (setting [7]); 58.9% in series [1] (setting [8]). The “Viability (%) at different lipid concentrations, mean” value in series [1] (setting [9]) was determined as 42.9%; in series [1] (setting [10]), 20.9%. Besides, the half-maximal inhibitory concentration (IC50) in series [1] (resazurin) is 299 µM. Further, the “Transfection 10 ng mRNA” value in series [2] is 2.38E+06. For the same molecule, in series [2], the “Transfection 50 ng mRNA” value is 1.22E+07. Further, the “Transfection 100 ng mRNA” value in series [2] is 9.34E+06.

For `CCCCC/C=C\C/C=C\CCCCCCCCOC(CCCCCN(CCO)CCO)O[Si](C)(C)OCCCCCCCC/C=C\C/C=C\CCCCC` (stereo not drawn) [Example 39, (21Z,24Z)-3-(2-hydroxyethyl)-11,11-dimethyl-9-(((9Z,12Z)-octadeca-9,12-dien-1-yl)oxy)-10,12-dioxa-3-aza-11-silatriaconta-21,24-dien-1-ol], the half-maximal inhibitory concentration (IC50) in series [1] (Homo sapiens, resazurin) came out at 667 µM. For the same molecule, the “Viability (%) at different lipid concentrations, mean” value in series [1] (human, 48 h, 6.25 μM) is 99.8%; in series [1] (human, 48 h, 12.5 μM), 97.8%; in series [1] (human, 48 h, 25 μM), 99.4%; in series [1] (human, 48 h, 50 μM) it was 98.6%; in series [1] (human, 48 h, 100 μM), 100.3%; in series [1] (human, 48 h, 200 μM), 106.1%. Also, the “Viability (%) at different lipid concentrations, mean” value in series [1] (human, 48 h, 400 μM) came to 83.4%; in series [1] (human, 48 h, 800 μM) it was 35.8%. In addition, the “Transfection 10 ng mRNA” value in series [2] worked out at 1.46E+05. For the same molecule, the “Transfection 50 ng mRNA” value in series [2] is reported as 1.40E+06. Moreover, in series [2], the “Transfection 100 ng mRNA” value is on record as 4.78E+06.

As to `CCCCC/C=C\C/C=C\CCCCCCCCO[Si](C)(C)OC(CCCCCCC/C=C\C/C=C\CCCCC)OCCCCCCN(CCO)CCO` (stereo not drawn) [Example 40, (23Z,26Z)-11-((8Z,11Z)-heptadeca-8,11-dien-1-yl)-3-(2-hydroxyethyl)-13,13-dimethyl-10,12,14-trioxa-3-aza-13-siladotriaconta-23,26-dien-1-ol], the “Viability (%) at different lipid concentrations, mean” value in series [1] (setting [3]) is given as 100.8%; in series [1] (setting [4]), 97.6%; in series [1] (setting [5]), 98.9%; in series [1] (setting [6]), 101.8%; in series [1] (setting [7]), 109.7%; in series [1] (setting [8]) it was 115.3%. The “Viability (%) at different lipid concentrations, mean” value in series [1] (setting [9]) is 102.0%; in series [1] (setting [10]), 89.0%. In addition, the 50% inhibitory concentration (IC50) in series [1] (Homo sapiens, resazurin) was over 800 µM. For the same molecule, the “Transfection 10 ng mRNA” value in series [2] is listed as 1.47E+05. Moreover, in series [2], the “Transfection 50 ng mRNA” value is reported as 2.13E+06. Moreover, the “Transfection 100 ng mRNA” value in series [2] is 8.09E+06.

As to `CCCCCCCC/C=C\CCCCCCCCOC(CCCCCCCCCCCCCCC)O[Si](C)(C)OCCCCCCN(CCO)CCO` (stereo not drawn) [Example 41, (Z)-3-(2-hydroxyethyl)-11,11-dimethyl-13-pentadecyl-10,12,14-trioxa-3-aza-11-siladotriacont-23-en-1-ol], the “Viability (%) at different lipid concentrations, mean” value in series [1] (setting [3]) worked out at 99.0%; in series [1] (setting [4]), 97.6%; in series [1] (setting [5]) it was 102.6%; in series [1] (setting [6]), 111.2%; in series [1] (setting [7]), 113.2%; in series [1] (setting [8]), 109.5%. The “Viability (%) at different lipid concentrations, mean” value in series [1] (setting [9]) came out at 91.5%; in series [1] (setting [10]), 90.7%. Moreover, in series [1] (Homo sapiens, resazurin), the IC50 was over 800 µM. In addition, in series [2], the “Transfection 10 ng mRNA” value was determined as 3.11E+05. Moreover, in series [2], the “Transfection 50 ng mRNA” value is given as 3.64E+06. Besides, the “Transfection 100 ng mRNA” value in series [2] is given as 1.03E+07.

Regarding `CCCCC/C=C\C/C=C\CCCCCCCCOC(CCCCCCC/C=C\C/C=C\CCCCC)O[Si](C)(C)OCCCCCCN1CCN(CCCCCCO[Si](C)(C)OC(CCCCCCC/C=C\C/C=C\CCCCC)OCCCCCCCC/C=C\C/C=C\CCCCC)CC1` (stereo not drawn) [Example 70, 1,4-bis((20Z,23Z)-10-((8Z,11Z)-heptadeca-8,11-dien-1-yl)-8,8-dimethyl-7,9,11-trioxa-8-silanonacosa-20,23-dien-1-yl)piperazine], in series [2], the “Transfection 10 ng mRNA” value is 6.46E+02, the “Transfection 50 ng mRNA” value is given as 5.40E+03 and the “Transfection 100 ng mRNA” value worked out at 2.07E+04.

As for `CCCCCCCC/C=C\CCCCCCCC(OCC(CCCCCCCC)SCCCCCCCCCC)O[Si](C)(C)OCCCCCCN(CCO)CCO` (stereo not drawn) [Example 73, (Z)-13-(heptadec-8-en-1-yl)-3-(2-hydroxyethyl)-11,11-dimethyl-16-octyl-10,12,14-trioxa-17-thia-3-aza-11-silaheptacosan-1-ol], in series [2], the “Transfection 10 ng mRNA” value was 6.90E+01, the “Transfection 50 ng mRNA” value is listed as 9.88E+02 and the “Transfection 100 ng mRNA” value was 4.08E+03.

On to `CCCCC/C=C\C/C=C\CCCCCCCCO[Si](C)(C)OC(CCCCCCC/C=C\CCCCCCCC)OCCCN(C)C` (stereo not drawn) [Example 81, (17Z,20Z)-5-((Z)-heptadec-8-en-1-yl)-N,N,7,7-tetramethyl-4,6,8-trioxa-7-silahexacosa-17,20-dien-1-amine], for which, in series [2], the “Transfection 10 ng mRNA” value came out at 1.57E+02, the “Transfection 50 ng mRNA” value is recorded as 5.31E+02 and the “Transfection 100 ng mRNA” value stood at 5.71E+02.

For `CCCCC/C=C\C/C=C\CCCCCCCCOC(CCCCCCC/C=C\C/C=C\CCCCC)O[Si](C)(C)O[Si](C)(C)CCCCCCN(CCO)CCO` (stereo not drawn) [Example 82, (24Z,27Z)-14-((8Z,11Z)-heptadeca-8,11-dien-1-yl)-3-(2-hydroxyethyl)-10,10,12,12-tetramethyl-11,13,15-trioxa-3-aza-10,12-disilatritriaconta-24,27-dien-1-ol], in series [2], the “Transfection 10 ng mRNA” value turned out to be 1.16E+03, the “Transfection 50 ng mRNA” value came to 7.26E+03 and the “Transfection 100 ng mRNA” value is 3.59E+04.

Values taken from patent US20260109721A1, “IONIZABLE CATIONIC LIPIDS INCORPORATING SILICON: SYNTHESIS AND LNP FORMULATION” (priority 2023, published 2026).
